Test results as given in publication PMC5571359, “Screening the Medicines for Malaria Venture Pathogen Box across Multiple Pathogens Reclassifies Starting Points for Open-Source Drug Discovery” (Antimicrobial Agents and Chemotherapy, 2017).
Like-named read-outs stand apart in the source and are kept apart here.

Assays:
[1] = tested on: L. donovani MHOM/IN/80/DD8 intracellular amastigotes; test: Leishmania donovani intracellular amastigote assay in THP-1 cells; assay type: cell-based
[2] = tested on: NF54-pfs16-LUC-GFP stage IV gametocytes; test: Plasmodium falciparum late stage gametocyte (LSG) image-based assay; assay type: cell-based; conditions: for IC50 / inhibition at 20 µM: Plasmodium falciparum; for inhibition at 20 µM: NF54, read-out: percent inhibition at the top screening dose, P. falciparum NF54 LSG
3T3 host cells = test: T. cruzi assay, activity against 3T3 host cells; assay type: cell-based; conditions: reference compound set; IA = inactive at 16.4 μM
Method: page 4: […] Puromycin, 71 chloroquine, artesunate, DHA, pyronaridine and pyrimethamine were also tested in 72 IC50 format to act as internal reference compounds. 73 74 Intracellular anti-Trypanosoma cruzi Assay Protocol 75 The host cell cytoplasm, in which the parasite resides, is identified by the fluorescent 76 marker, HCS CellMask Green. Parasite and host cell nuclei are detected with the 77 fluorescent DNA intercalator, Hoechst 33342. The Opera® High Content Screening 78 System is used to take images of wells and a spot detection algorithm is used to 79 identify parasites within the cytoplasm. 80 81 Briefly, 1x 10^3 3T3 cells were added to collagen coated 384-well plates and following 82 24 hrs incubation at 37 °C, a multiplicity of infection (MOI) of 5:1 parasite: host cells 83 were added to the plate using a Multidrop liquid handler. Following additional 24 hrs 84 incubation, extracellular parasites were washed from the plates and RPMI with no […] 86 added to all wells. The final volume of media in the primary screening assay, before 87 addition of compound, was modified slightly to 55 µL. One µL of compounds, provided 88 by Compounds Australia, were diluted by the addition of 25 µL of sterile water. This […] 91 donovani). Five microliters of this dilution was added to assay plates. The final […] The final concentrations of compounds in the […] Following 48 hrs incubation in the presence 97 of compounds, wells were fixed, stained and read on the Opera® High Content 98 Screening System to assess compound activity. 99 The Z′-factor, as a measure of assay reproducibility, was determined from a plate […] The positive control used to calculate activity against […] To 103 assess the sensitivity of the T. cruzi assay, activity of the reference compounds 104 benznidazole, NFX, posaconazole and puromycin were determined. […] 108 resazurin as a measure of parasite viability. 109 T. b. brucei trypanosomes were cultured in vitro in HM1-9 medium supplemented with […] Fifty-five µL of logarithmic phase […] 112 incubated for 24 hrs at 37°C /5% CO2. Compounds were subsequently added to the […] Following […] 116 37°C / 5% CO2 followed by 22 hrs at room temperature. […] The percent

[3] = tested on: T. b. brucei 427 bloodstream trypanosomes; test: T. b. brucei resazurin viability assay; assay type: cell-based, Trypanosoma brucei brucei; conditions: Trypanosoma brucei
[4] = tested on: Plasmodium falciparum 3D7 asexual blood stage; test: microbe, parasite or virus in culture; conditions: for inhibition at 20 µM: 3D7, read-out: percent inhibition at the top screening dose, P. falciparum 3D7 ABS
[5] = tested on: T. cruzi intracellular amastigotes; test: Intracellular anti-Trypanosoma cruzi image-based assay (amastigotes); assay type: cell-based; conditions: Trypanosoma cruzi
liver stage = conditions: liver stage; ref Pathogen Box supporting information; read-out: LIVER STAGE Pbox IC50; cited from earlier work
[6] = tested on: P. falciparum stage V gametocytes; conditions: cited from earlier work; for IC50: stage V gametocytes, ref Pathogen Box supporting information, read-out: PF stage V GAMS PBox IC50
HepG2 = conditions: read-out: HepG2 PBox CC50 µM; HepG2 CC50; ref Pathogen Box supporting information; cited from earlier work
P. falciparum ABS = conditions: cited from earlier work; for EC50: ChEMBL Data, TCMDC, read-out: TCMDC (ref 93) EX50; for IC50: Pf 3D7, ref Pathogen Box supporting information, read-out: Pf 3D7 Pbox IC50
HEK293 cells = test: HEK293 resazurin cell cytotoxicity assay; conditions: Homo sapiens; for IC50: HEK293, read-out: HEK % Discovery Biology IC50 uM
[7] = Leishmania donovani, THP-1, read-out: IC50 L. donovani n = 1, reference compound set, first test, IA = inactive at 20 μM
[8] = Leishmania donovani, THP-1, read-out: IC50 L. donovani n = 2, reference compound set, second test, IA = inactive at 20 μM
[9] = NF54, read-out: IC50 P. falciparum NF54 LSG, reference compound set, 11-point dose response, IA = inactive at 20 μM
[10] = reference compound set, IA = inactive at 20 μM, read-out: IC50 T. brucei brucei trypomastigotes
[11] = 3D7, read-out: IC50 P. falciparum 3D7 ABS
[12] = reference compound set, IA = inactive at 16.4 μM, read-out: IC50 T. cruzi intracellular amastigotes
[13] = NF54, read-out: Pf Stage IV GAMS Discovery Biology IC50 µM, stage IV gametocytes, Discovery Biology
[14] = 3D7, read-out: Pf 3D7 Discovery Biology IC50 µM, P. falciparum 3D7 asexual blood stage, Discovery Biology
[15] = Leishmania donovani, THP-1, intracellular amastigotes, Discovery Biology, some values carry an asterisk, read-out: L, donovani Discovery Biology IC50 µM
[16] = PBox compounds, read-out: IC50 T. brucei brucei (Discovery Biology)

SMILES | IC50 [1, 7] [µM] | IC50 [1, 8] [µM] | IC50 [2, 9] [µM] | IC50 (3T3 host cells) [µM] | IC50 [3, 10] [µM] | IC50 [4, 11] [µM] | IC50 [5, 12] [µM] | inhibition at 20 µM [4] [%] | IC50 (liver stage) [µM] | IC50 [2, 13] [µM] | IC50 [6] [µM] | IC50 [4, 14] [µM] | CC50 (HepG2) [µM] | EC50 (P. falciparum ABS) [µM] | IC50 (P. falciparum ABS) [µM] | further results
NCC[C@H](O)C(=O)N[C@@H]1C[C@H](N)[C@@H](O[C@H]2O[C@H](CN)[C@@H](O)[C@H](O)[C@H]2O)[C@H](O)[C@H]1O[C@H]1O[C@H](CO)[C@@H](O)[C@H](N)[C@H]1O [Amikacin, reference compound] | > 20 | > 20 | > 20 | > 16.4 | > 20 | > 20 | > 16.4 | – | – | – | – | – | – | – | – | –
C[C@@H]1[C@H](O)[C@@H](C)/C=C/C=C/C=C/C=C/C=C/C=C/C=C/[C@H](O[C@@H]2O[C@H](C)[C@@H](O)[C@H](N)[C@@H]2O)C[C@@H]2O[C@](O)(C[C@@H](O)C[C@@H](O)[C@H](O)CC[C@@H](O)C[C@@H](O)CC(=O)O[C@H]1C)C[C@H](O)[C@H]2C(=O)O [Amphotericin B] | – | > 20 | > 20 | > 16.4 | > 20 | – | > 16.4 | 87 | – | – | – | – | – | – | – | IC50 ([1]; Leishmania donovani, THP-1, in-house control stock, not the PBox sample, two tests, read-out: IC50 of standard in-house assay control, L. donovani): 0.41 µM; inhibition at 20 µM ([1]; Leishmania donovani, THP-1, reference compound set, first test, 20 μM, read-out: percent inhibition at the top screening dose, L. donovani n = 1): 100%; activity against L. donovani at 20 μM ([1]; PBox sample, 20 μM): not active
COc1nc2ccc(Br)cc2cc1[C@@H](c1ccccc1)[C@@](O)(CCN(C)C)c1cccc2ccccc12 [Bedaquiline, reference compound] | > 20 | > 20 | – | > 16.4 | – | – | > 16.4 | 91 | – | – | – | – | – | – | – | inhibition at 20 µM [2]: 75%; inhibition at 20 µM ([3]; reference compound set, 20 μM, read-out: percent inhibition at the top screening dose, T. brucei brucei): 59%
O=C(Cn1ccnc1[N+](=O)[O-])NCc1ccccc1 [Benznidazole, reference compound] | > 20 | > 20 | > 20 | > 16.4 | > 20 | > 20 | – | – | – | – | – | – | – | – | – | inhibition at 16.4 µM ([5]; reference compound set, 16.4 μM, read-out: percent inhibition at the top screening dose, T. cruzi intracellular amastigotes): 94%
CC(C)/N=c1\cc2n(-c3ccc(Cl)cc3)c3ccccc3nc-2cc1Nc1ccc(Cl)cc1 [Clofazimine, reference compound] | > 20 | > 20 | > 20 | > 16.4 | > 20 | – | > 16.4 | 84 | – | – | – | – | – | – | – | –
CCN(CC)C(=O)N1CCN(C)CC1 [Diethylcarbamazine, reference compound] | > 20 | > 20 | > 20 | > 16.4 | > 20 | > 20 | > 16.4 | – | – | – | – | – | – | – | – | –
C[C@H]1c2cccc(O)c2C(=O)C2=C(O)[C@]3(O)C(=O)C(C(N)=O)=C(O)[C@@H](N(C)C)[C@@H]3[C@@H](O)[C@@H]21 [Doxycycline, reference compound] | > 20 | > 20 | – | > 16.4 | > 20 | – | > 16.4 | 90 | – | – | – | – | – | – | – | inhibition at 20 µM [2]: 77%
CC[C@@H](CO)NCCN[C@@H](CC)CO [Ethambutol, reference compound] | > 20 | > 20 | – | > 16.4 | > 20 | > 20 | > 16.4 | – | – | – | – | – | – | – | – | inhibition at 20 µM [2]: 42%
CC(=O)NC[C@H]1CN(c2ccc(N3CCOCC3)c(F)c2)C(=O)O1 [Linezolid, reference compound] | > 20 | > 20 | > 20 | > 16.4 | > 20 | > 20 | > 16.4 | – | – | – | – | – | – | – | – | –
COc1cc(-c2cc(-c3ccc(S(C)(=O)=O)cc3)cnc2N)ccc1O [MMV010576] | – | – | – | – | – | – | – | – | 2.52 | 0.15 | 0.066 | 0.07 | > 10 | 0.1 | 0.1 | IC50 ([1]; Leishmania donovani, THP-1, PBox compounds, intracellular amastigotes, read-out: IC50 L. donovani (Discovery Biology)): 5.18 µM
CN1CCC(NCc2cccc(-c3ccc(S(=O)(=O)NCc4ccccc4)cc3)c2)CC1 [MMV022029] | – | – | – | – | – | – | – | – | 4.55 | 4.04 | 1.42 | 0.69 | > 10 | 0.69 | 0.82 | IC50 [1, 15]: 5.03 µM; IC50 [3, 16]: 2.38 µM; inhibition at 20 µM (HEK293 cells; HEK293, read-out: HEK % Inhibition 20uM/IC50 Discovery Biology): 100%
O=C(Nc1ccc(N2CCNCC2)cc1)c1ccn2ncc(-c3cccc(Cl)c3)c2n1 [MMV022478] | – | – | – | – | – | – | – | – | > 10 | 2.89 | 0.62 | 1.29 | > 10 | 0.92 | 0.78 | IC50 [1, 15]: 5.02 µM; activity in the Discovery Biology stage IV gametocyte (LSG) assay [2]: demonstrate activity; activity against gametocytes (stage V), PBox supporting information ([6]; ref Pbox supporting information): demonstrate activity; IC50 [3, 16]: 1.45 µM; IC50 (HEK293 cells): 8.11 µM; IC50 ([5]; intracellular amastigotes, Discovery Biology, read-out: T cruzi Discovery Biology IC50): 4.7 µM
O=C(Nc1ccccc1)c1ccc(-c2cc3ccncc3cc2OC2CCNCC2)s1 [MMV024035] | – | – | – | – | – | – | – | – | 7.37 | 4.48 | 2.28 | 0.31 | > 7.5 | 0.65 | 0.57 | IC50 ([3]; read-out: T b.brucei Discovery Biology IC50): 2.72 µM; IC50 (HEK293 cells): 6.67 µM
